Test results from patent publication US6417174B1, “Inhibitors of β-lactamases and uses therefor” (Northwestern University, priority 1997, dated 2002).
Like-named read-outs stand apart in the source and are kept apart here.

Columns and labels:
[1] = target: T1, TEM-1 β-lactamase from E. coli (Escherichia coli, UniProt P62593); experiment: Inhibition of TEM-1 β-lactamase, spectrophotometric assay (FAP substrate); format: biochemical
T1 construct: gift: Natalie Strynadka, University of Alberta

[2] = target: AmpC β-lactamase from E. coli (Escherichia coli, UniProt P00811); experiment: biochemical; format: biochemical
[3] = system: β-lactamase derepressed strain of Enterobacter cloacae (Ent-Der); experiment: microbe, parasite or virus in culture; format: cell-based; settings: for MIC of ceftazidime plus inhibitor: Table 3A, proportion 4/1, given as CAZ/inhibitor; for MIC of ceftazidime plus inhibitor / MIC of inhibitor used alone without ceftazidime: Ent. Der.; for MIC of inhibitor used alone without ceftazidime: Table 3B; for MIC of ceftazidime plus inhibitor: values in µg/ml
Method: (§1) After incubation, the growth of the cells was visually inspected. The minimum inhibitory concentration (MIC) is the lowest concentration where there no cell growth was observed.
(§2) The following strains were used: Enterobacter cloacae cell line with derepressed β-lactamase production (Ent-Der), and Escherichia coli RYC1000 (araD139 D lacU169 rpsL D rib7 thiA gyrA recA56) cell lines, harboring the plasmid pBGS19 (with no β-lactamase), or the β-lactamase containing plasmids pBGAmpC (AmpC β-lactamase from E. coli; Eco-AmpC), or pBGAmpC-MHN (AmpC β-lactamase from Enterobacter cloacae; Eco-AmpCEnt). […] TEM-10 and TEM-24 differ from TEM-1 due to the following point substitutions: TEM-10 (R164S, E240K); TEM-24 (L102K, L162S, S235T, A237K). TEM-10 and TEM-24 also differ from TEM-1 in being extended spectrum enzymes (i.e., they react with a greater range of substrates than TEM-1). Also tested were clinical isolates of Pseudomonas aeruginosa. All bacterial strains and plasmids are available from Jesus Blazquez and Fernando Baquero, Servicio de Microbiologia, Hospital Ramon y Cajal, National Institute of Health, Madrid, Spain.
(§3) Several ratios, including 1:1, 2:1, 4:1, and 1:3, of β-lactam antibiotic (amoxicillin (AX) or ceftazidime (CAZ)) to boronic acid compound were used in the assays. Tazobactam (TAZO), a clinically used β-lactamase inibitor, was used as a positive control.

[4] = system: E. coli RYC1000 harboring plasmid pBGTEM-24 (TEM-24 β-lactamase); experiment: microbe, parasite or virus in culture; format: cell-based, Escherichia coli; settings: for MIC of ceftazidime plus inhibitor: Table 3A, proportion 4/1, given as CAZ/inhibitor; for MIC of inhibitor used alone without ceftazidime: Table 3B; for MIC of ceftazidime plus inhibitor: values in µg/ml
Method: as §1, §2, §3

[5] = system: E. coli RYC1000 harboring plasmid pBGAmpC-MHN (AmpC β-lactamase of Enterobacter cloacae); experiment: microbe, parasite or virus in culture; format: cell-based, Escherichia coli; settings: for MIC of ceftazidime plus inhibitor: Table 3A, proportion 4/1, given as CAZ/inhibitor; for MIC of ceftazidime plus inhibitor / MIC of inhibitor used alone without ceftazidime: AmpC-MHN; for MIC of inhibitor used alone without ceftazidime: Table 3B; for MIC of ceftazidime plus inhibitor: values in µg/ml
Method: as §1, §2, §3

[6] = system: E. coli RYC1000 harboring plasmid pBGS19 (no β-lactamase); experiment: microbe, parasite or virus in culture; format: cell-based, Escherichia coli; settings: for MIC of ceftazidime plus inhibitor: Table 3A, proportion 4/1; for MIC of ceftazidime plus inhibitor / MIC of inhibitor used alone without ceftazidime: pBGS19; for MIC of inhibitor used alone without ceftazidime: Table 3B
Method: as §1, §2, §3

[7] = system: E. coli RYC1000 harboring pBGAmpC-E. coli producing AmpC (ECR-AmpCEc); experiment: microbe, parasite or virus in culture; format: cell-based, Escherichia coli
Method: as §1, §2, §3

[8] = system: E. coli RYC1000 harboring a plasmid coding for a mutant of AmpC from Enterobacter (ECR-AmpCEnM); experiment: microbe, parasite or virus in culture; format: cell-based, Escherichia coli
Method: as §1, §2, §3

[9] = system: E. coli RYC1000 harboring pBGTEM-10 producing TEM-10 β-lactamase (EC-T10); experiment: microbe, parasite or virus in culture; format: cell-based, Escherichia coli
Method: as §1, §2, §3

[10] = system: E. coli RYC1000 harboring pBGTEM-1 producing TEM-1 β-lactamase (EC-T1); experiment: microbe, parasite or virus in culture; format: cell-based, Escherichia coli
Method: as §1, §2, §3

[11] = Tables 2A/2B, pH 7.0, 25° C., 100 μM FAP, N.I. = no inhibition observed at an inhibitor concentration of 100 μM, read-out: Ki E. coli TEM-1
[12] = Tables 2A/2B, pH 7.0, 25° C., 100 μM cephalothin, read-out: Ki E. coli AmpC
[13] = Table 5, as described in Example 2, read-out: Ki AmpC
[14] = pH 7, read-out: Ki E. coli AmpC
[15] = Enterobacter cloacae, read-out: MIC of amoxicillin (AX)
[16] = Escherichia coli, read-out: MIC of amoxicillin (AX)

T1 sequence (P62593 24-286 limits assumed): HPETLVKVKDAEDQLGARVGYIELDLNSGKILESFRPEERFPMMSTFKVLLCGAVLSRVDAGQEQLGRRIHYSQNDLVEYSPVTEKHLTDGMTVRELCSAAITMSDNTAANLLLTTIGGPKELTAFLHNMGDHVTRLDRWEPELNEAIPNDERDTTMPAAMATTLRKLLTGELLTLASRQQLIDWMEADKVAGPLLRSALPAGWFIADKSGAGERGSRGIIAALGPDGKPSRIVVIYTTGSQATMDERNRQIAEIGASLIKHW
Sequence of AmpC β-lactamase from E. coli (P00811 20-377): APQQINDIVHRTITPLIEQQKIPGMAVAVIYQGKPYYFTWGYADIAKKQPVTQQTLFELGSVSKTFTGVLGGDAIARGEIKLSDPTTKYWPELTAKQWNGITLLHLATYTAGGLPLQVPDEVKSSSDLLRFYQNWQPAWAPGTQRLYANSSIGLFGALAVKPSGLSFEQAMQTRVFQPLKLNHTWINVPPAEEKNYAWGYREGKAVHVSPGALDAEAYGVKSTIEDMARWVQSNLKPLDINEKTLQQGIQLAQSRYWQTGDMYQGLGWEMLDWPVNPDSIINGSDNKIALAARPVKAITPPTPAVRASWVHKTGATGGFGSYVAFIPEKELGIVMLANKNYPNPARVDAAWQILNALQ

SMILES: O=Cc1ccc(B(O)O)cc1 [4FORMB, 4-formylphenylboronate, reference compound]
- Ki [1, 11]: 35 µM
- Ki [2, 12]: 2.8 µM

SMILES: CC(=O)c1ccc(B(O)O)s1 [5ACTH2B, 5-acetylthiophene-2-boronic acid]
- Ki [1]: > 50 µM
- Ki [2, 12]: 1.8 µM

SMILES: CN1C(=O)/C(=N\Nc2cccc(B(O)O)c2)c2ccccc2C1=O
- Ki [2, 13]: 0.075 µM

SMILES: O=C(O)/C=C/c1cccc(B(O)O)c1
- Ki [2, 13]: 5.9 ± 0.3 µM

SMILES: OB(O)c1cccc(C(F)(F)F)c1 [3TFMB]
- Ki [1, 11]: 85 µM
- Ki values (AmpC), range in words [2]: one to two
- Ki [2, 14]: 1.6 µM

SMILES: OB(O)c1ccc2c(c1)OCO2
- Ki [2, 13]: 53.4 ± 6.1 µM

SMILES: OB(O)c1ccc(Cl)s1 [5CLTH2B, 5-chlorothiophene-2-boronic acid]
- Ki [1]: 17 µM
- Ki [2, 12]: 1.4 µM
- MIC of ceftazidime plus inhibitor [3]: 32/8
- MIC of inhibitor used alone without ceftazidime [3]: 128 µg/mL
- MIC of ceftazidime plus inhibitor [4]: 128/32
- MIC of inhibitor used alone without ceftazidime [4]: 128 µg/mL
- MIC of ceftazidime plus inhibitor [5]: 4/1
- MIC of inhibitor used alone without ceftazidime [5]: 128 µg/mL
- MIC of ceftazidime plus inhibitor [6]: <0.25 µg/mL
- MIC of inhibitor used alone without ceftazidime [6]: 128 µg/mL

SMILES: OB(O)[C@H]1CCOC1 [(S)-3-tetrahydrofuranylboronic acid]
- Ki ([2]; read-out: Ki for AmpC): 15.8 ± 0.8 µM

SMILES: OB(O)c1ccc(B(O)O)cc1 [B14DA]
- Ki [1, 11]: 40 µM
- Ki [2, 14]: 6.9 µM

SMILES: OB(O)c1ccc2ccccc2c1 [2-naphthylboronic acid]
- Ki ([2]; Example 1, read-out: Ki for AmpC): 8.5 ± 1.8 µM

SMILES: OB(O)c1cc2ccccc2o1 [BZBF2B, benzo[b]furan-2-boronic acid]
- Ki [1]: 8 µM
- activity relative to furan-2-boronic acid parent (AmpC) [2]: about 1000 fold
- Ki ([2]; Ki E. coli AmpC): 0.07 µM

SMILES: OB(O)c1ccc(Br)cc1 [4BPB, 4-bromophenylboronic acid]
- Ki [1]: 31.3 µM
- Ki ([2]; Ki E. coli AmpC): 2.6 µM

SMILES: CCCCB(O)O [BUTB, Butylboronic acid]
- Ki [1]: > 100 µM
- Ki [2, 12]: > 500 µM

SMILES: O=C1OC(=O)c2ccccc2/C1=N/Nc1cccc(B(O)O)c1
- Ki [2, 13]: 0.075 µM

SMILES: O=Cc1ccsc1B(O)O [3FTH2B, 3-formylthiophene-2-boronic acid]
- Ki E. coli TEM-1 ([1]; Tables 2A/2B, pH 7.0, 25° C., 100 μM FAP, N.I. = no inhibition observed at an inhibitor concentration of 100 μM): N.I.
- Ki [2, 12]: 3.5 µM

SMILES: OB(O)c1ccc(C(F)(F)F)cc1 [4TFMB]
- Ki [1, 11]: 6.3 µM
- Ki [2, 14]: 9 µM

SMILES: CC1(C)S[C@@H]2[C@H](NC(=O)[C@H](N)c3ccc(O)cc3)C(=O)N2[C@H]1C(=O)O [AX, amoxicillin, reference compound]
- MIC [3, 15]: > 2050 µg/mL
- MIC [7, 16]: > 2050 µg/mL
- MIC ([8]; Enterobacter, read-out: MIC of amoxicillin (AX)): > 2050 µg/mL
- MIC [5, 15]: > 2050 µg/mL
- MIC [9, 16]: > 2050 µg/mL
- MIC [10, 16]: > 2050 µg/mL

SMILES: Cc1ccc(B(O)O)cc1 [4MEPB, 4-methylphenylboronate, reference compound]
- Ki [1, 11]: > 100 µM
- Ki [2, 14]: 5.2 µM

SMILES: OB(O)c1csc2ccccc12
- Ki ([2]; read-out: Ki AmpC): 0.78 ± 0.08 µM

SMILES: OB(c1ccccc1)c1ccccc1 [DFB, diphenylboronic acid]
- Ki [1, 11]: > 100 µM
- inhibition of AmpC (in words) [2]: lacks measurable inhibition
- Ki [2, 12]: > 500 µM

SMILES: OB(O)c1cccc2ccccc12 [NAPB]
- Ki [1, 11]: 34 µM
- Ki [2, 12]: 10.4 µM
- dissociation constant relative to MAPB (AmpC) ([2]; compared with MAPB): two to three-fold worse (higher)

SMILES: OB(O)c1ccccc1 [2FDB, phenylboronic acid, reference compound]
- Ki [1]: > 100 µM
- Ki [2, 12]: 8 µM

SMILES: O=Cc1ccccc1B(O)O [2FORMB, 2-formylphenylboronate, reference compound]
- Ki [1, 11]: > 100 µM
- Ki [2, 12]: 62 µM

SMILES: OB(O)[C@@H]1CCOC1 [(R)-3-tetrahydrofuranyl-boronic acid]
- Ki ([2]; read-out: Ki for AmpC): 1.4 ± 0.1 µM

SMILES: Oc1ccc(N=Nc2ccc(Br)cc2)cc1B1OB(c2cc(N=Nc3ccc(Br)cc3)ccc2O)OB(c2cc(N=Nc3ccc(Br)cc3)ccc2O)O1 [4BPAPB, 2,4,6-tris(β-(4-bromophenylazo)-2-hydroxyphenyl) boroxin]
- Ki [1, 11]: 1.2 µM
- Ki [2, 14]: 7.2 µM
- MIC of ceftazidime plus inhibitor [3]: 512/128
- MIC of inhibitor used alone without ceftazidime [3]: >512 µg/mL
- MIC of ceftazidime plus inhibitor [4]: 256/64
- MIC of inhibitor used alone without ceftazidime [4]: 256 µg/mL
- MIC of ceftazidime plus inhibitor [5]: 8/2
- MIC of inhibitor used alone without ceftazidime [5]: 256 µg/mL
- MIC of ceftazidime plus inhibitor [6]: <0.25 µg/mL
- MIC of inhibitor used alone without ceftazidime [6]: 128 µg/mL

SMILES: Cc1csc(B(O)O)c1
- Ki [2, 13]: 0.5 ± 0.05 µM

SMILES: OB(O)c1ccc2[nH]ccc2c1
- Ki [2, 13]: 10.9 ± 0.6 µM

SMILES: OB(O)c1ccsc1 [TH3B, thiopene-3-boronic acid]
- Ki [1, 11]: 100 µM
- Ki [2, 14]: 17 µM
- Ki ([2]; read-out: Ki for AmpC): 22.1 ± 3.5 µM

SMILES: C[C@]1(Cn2ccnn2)[C@H](C(=O)O)N2C(=O)C[C@H]2S1(=O)=O [TAZO, Tazobactam, reference compound]
- MIC of ceftazidime plus inhibitor [3]: 32/8
- MIC of amoxicillin plus inhibitor ([3]; Table 4A, Ent-Der., proportion 4/1): 128 µg/mL
- MIC of inhibitor used alone without amoxicillin ([3]; Table 4B, Ent-Der., not tested above 128 μg/ml, “256” indicates no inhibition of cell growth): 256 µg/mL
- MIC of amoxicillin plus inhibitor ([7]; Table 4A, ECR-AmpCEc, proportion 4/1): 32 µg/mL
- MIC of inhibitor used alone without amoxicillin ([7]; Table 4B, ECR-AmpCEc, not tested above 128 μg/ml, “256” indicates no inhibition of cell growth): 64 µg/mL
- MIC of ceftazidime plus inhibitor [4]: 8/2
- MIC of amoxicillin plus inhibitor ([8]; Table 4A, ECR-AmpCEnM, proportion 4/1): 16 µg/mL
- MIC of inhibitor used alone without amoxicillin ([8]; Table 4B, ECRAmpCEnM, not tested above 128 μg/ml, “256” indicates no inhibition of cell growth): 64 µg/mL
- MIC of ceftazidime plus inhibitor [5]: 4/1
- MIC of amoxicillin plus inhibitor ([5]; Table 4A, EC-AmpCEn, proportion 4/1): 16 µg/mL
- MIC of inhibitor used alone without amoxicillin ([5]; Table 4B, ECAmpCEn, not tested above 128 μg/ml, “256” indicates no inhibition of cell growth): 64 µg/mL
- MIC of amoxicillin plus inhibitor ([9]; Table 4A, EC-T10, proportion 4/1): 4 µg/mL
- MIC of inhibitor used alone without amoxicillin ([9]; Table 4B, EC-T10, not tested above 128 μg/ml, “256” indicates no inhibition of cell growth): 64 µg/mL
- MIC of amoxicillin plus inhibitor ([10]; Table 4A, EC-T1, proportion 4/1): 8 µg/mL
- MIC of inhibitor used alone without amoxicillin ([10]; Table 4B, EC-T1, not tested above 128 μg/ml, “256” indicates no inhibition of cell growth): 32 µg/mL
- MIC of ceftazidime plus inhibitor [6]: <0.25 µg/mL
- MIC of inhibitor used alone without amoxicillin ([6]; Table 4B, EC, not tested above 128 μg/ml, “256” indicates no inhibition of cell growth): 32 µg/mL

SMILES: OB(O)c1cc(N=Nc2cccc(C(F)(F)F)c2)ccc1O [HFAB, 2-hydroxy-5-(3-(trifluoromethyl)phenylazo) benzeneboronic acid]
- Ki [2, 12]: 1.3 µM

SMILES: O=C(O)/C=C/c1ccc(B(O)O)cc1
- Ki [2, 13]: 4.2 ± 1.1 µM
